In the NIST ThermoML archive (doi:10.1021/je5010214):

Settings: Liquid, Vibrating tube method

CC(C)CO [2-methyl-1-propanol]
Settings	mass density [kg/m3]
323.15 K, 32903 kPa	805.081
323.15 K, 33102 kPa	805.154
323.15 K, 33950 kPa	805.707
323.15 K, 34958 kPa	806.425
323.15 K, 37883 kPa	808.369
323.15 K, 39891 kPa	809.68
323.15 K, 42065 kPa	811.076
323.15 K, 44846 kPa	812.852
323.15 K, 49935 kPa	815.968
323.15 K, 52064 kPa	817.249
323.15 K, 54897 kPa	818.944
323.15 K, 57818 kPa	820.634
323.15 K, 59855 kPa	821.787
323.15 K, 61856 kPa	822.928
323.15 K, 64838 kPa	824.6
323.15 K, 65957 kPa	825.209
323.16 K, 1117.8 kPa	779.897
323.16 K, 47886 kPa	814.721
328.15 K, 96.5 kPa	774.907
328.15 K, 395.8 kPa	775.157
328.15 K, 904.1 kPa	775.603
328.15 K, 1030.6 kPa	775.74
328.15 K, 2999.3 kPa	777.646
328.15 K, 5042 kPa	779.515
328.15 K, 10121 kPa	784.077
328.15 K, 11905 kPa	785.621
328.15 K, 24953 kPa	795.929
328.15 K, 27874 kPa	798.098
328.15 K, 29949 kPa	799.588
328.15 K, 31948 kPa	800.996
328.15 K, 33061 kPa	801.681
328.15 K, 34111 kPa	802.415
328.15 K, 34984 kPa	803.007
328.15 K, 37913 kPa	805.001
328.15 K, 41958 kPa	807.674
328.15 K, 44806 kPa	809.5
328.15 K, 55150 kPa	815.995
328.15 K, 58100 kPa	817.75
328.15 K, 60045 kPa	818.881
328.15 K, 62082 kPa	820.048
328.15 K, 66095 kPa	822.334
328.16 K, 515 kPa	775.262
328.16 K, 2069.7 kPa	776.794
328.16 K, 6936.7 kPa	781.257
328.16 K, 8874.2 kPa	782.985
328.16 K, 14954 kPa	788.149
328.16 K, 17891 kPa	790.513
328.16 K, 20040 kPa	792.21
328.16 K, 22054 kPa	793.773
328.16 K, 33018 kPa	801.745
328.16 K, 39966 kPa	806.346
328.16 K, 47820 kPa	811.414
328.16 K, 49817 kPa	812.637
328.16 K, 52099 kPa	814.145
328.16 K, 64955 kPa	821.692
333.15 K, 95.7 kPa	770.629
333.15 K, 913.6 kPa	771.467
333.15 K, 6965.6 kPa	777.259
333.15 K, 8937.3 kPa	779.076
333.15 K, 9995.1 kPa	780.005
333.15 K, 11970 kPa	781.72
333.15 K, 14915 kPa	784.255
333.15 K, 22033 kPa	790.027
333.15 K, 29996 kPa	796.045
333.15 K, 31986 kPa	797.49
333.15 K, 32928 kPa	798.124
333.15 K, 41792 kPa	804.162
333.15 K, 47830 kPa	808.087
333.15 K, 49895 kPa	809.38
333.15 K, 51876 kPa	810.61
333.15 K, 54830 kPa	812.44
333.15 K, 58116 kPa	814.429
333.15 K, 59975 kPa	815.509
333.15 K, 61974 kPa	816.676
333.15 K, 65057 kPa	818.467
333.15 K, 66042 kPa	819.039
333.16 K, 295.9 kPa	770.818
333.16 K, 574.5 kPa	771.11
333.16 K, 1069.5 kPa	771.621
333.16 K, 2110.6 kPa	772.649
333.16 K, 3100 kPa	773.622
333.16 K, 5034 kPa	775.464
333.16 K, 17954 kPa	786.777
333.16 K, 19985 kPa	788.397
333.16 K, 24923 kPa	792.261
333.16 K, 27922 kPa	794.514
333.16 K, 33031 kPa	798.137
333.16 K, 34001 kPa	798.837
333.16 K, 35030 kPa	799.567
333.16 K, 37925 kPa	801.558
333.16 K, 39862 kPa	802.861
333.16 K, 44782 kPa	806.126
338.15 K, 72.5 kPa	765.803
338.15 K, 267.1 kPa	766.009
338.15 K, 496.5 kPa	766.255
338.15 K, 821.3 kPa	766.6
338.15 K, 1007.7 kPa	766.796
338.15 K, 2012.4 kPa	767.824
338.15 K, 3039.1 kPa	768.845
338.15 K, 7018.5 kPa	772.739
338.15 K, 8987.6 kPa	774.596
338.15 K, 10054 kPa	775.578
338.15 K, 18105 kPa	782.627
338.15 K, 22120 kPa	785.947
338.15 K, 28029 kPa	790.565
338.15 K, 32010 kPa	793.527
338.15 K, 32776 kPa	794.103
338.15 K, 32995 kPa	794.184
338.15 K, 33922 kPa	794.869
338.15 K, 38056 kPa	797.798
338.15 K, 42127 kPa	800.629
338.15 K, 48090 kPa	804.572
338.15 K, 50121 kPa	805.906
338.15 K, 52094 kPa	807.168
338.15 K, 55116 kPa	809.055
338.15 K, 58010 kPa	810.837
338.15 K, 60191 kPa	812.149
338.15 K, 62244 kPa	813.373
338.15 K, 65243 kPa	815.143
338.15 K, 65986 kPa	815.583
338.15 K, 66355 kPa	815.805
338.16 K, 5091.1 kPa	770.879
338.16 K, 12131 kPa	777.462
338.16 K, 15171 kPa	780.113
338.16 K, 20167 kPa	784.349
338.16 K, 25290 kPa	788.465
338.16 K, 30041 kPa	792.069
338.16 K, 35102 kPa	795.7
338.16 K, 39987 kPa	799.156
338.16 K, 45109 kPa	802.623
343.15 K, 55.6 kPa	761.239
343.15 K, 101.8 kPa	761.279
343.15 K, 277.3 kPa	761.484
343.15 K, 487.7 kPa	761.699
343.15 K, 881.6 kPa	762.13
343.15 K, 1037 kPa	762.294
343.15 K, 1941.4 kPa	763.263
343.15 K, 3000.3 kPa	764.362
343.15 K, 4957 kPa	766.378
343.15 K, 6956.1 kPa	768.377
343.15 K, 8969.5 kPa	770.304
343.15 K, 10003 kPa	771.264
343.15 K, 11997 kPa	773.149
343.15 K, 14895 kPa	775.758
343.15 K, 17840 kPa	778.358
343.15 K, 20135 kPa	780.417
343.15 K, 21925 kPa	781.908
343.15 K, 24920 kPa	784.349
343.15 K, 27949 kPa	786.755
343.15 K, 29863 kPa	788.238
343.15 K, 31874 kPa	789.777
343.15 K, 32927 kPa	790.544
343.15 K, 32981 kPa	790.602
343.15 K, 34026 kPa	791.305
343.15 K, 35028 kPa	792.011
343.15 K, 38080 kPa	794.257
343.15 K, 39908 kPa	795.53
343.15 K, 41973 kPa	796.98
343.15 K, 44972 kPa	799.034
343.15 K, 47997 kPa	801.072
